Consider 1 compound from ChEMBL document CHEMBL5365467 (J Med Chem, 2023).

Structures are written as SMILES. Some results are limits rather than exact numbers.

One data set concerns VCaP. The data set is described as follows: Antitumor activity against human VCaP cells xenografted in CB17-SCID mouse assessed as tumor growth inhibition at 20 mg/kg, po administered for 21 days. The note with it: 504 h, read-out: TGI. For orientation: Xenograft models place foreign cells or tissue in a host animal.
For data set [1], the target named is Protein cereblon/Androgen receptor (Homo sapiens, UniProt P10275+Q96SW2, T878A). Description: PROTAC activity at AR T878A mutant/CRBN in human LNCaP cells assessed as induction of androgen receptor degradation measured at 24 hrs by Western blot analysis. In kind it is cell-based. A general note: A western blot detects proteins with antibodies after separation by electrophoresis.
Chain of Protein cereblon/Androgen receptor (P10275 whole entry T878A, stated change not applied): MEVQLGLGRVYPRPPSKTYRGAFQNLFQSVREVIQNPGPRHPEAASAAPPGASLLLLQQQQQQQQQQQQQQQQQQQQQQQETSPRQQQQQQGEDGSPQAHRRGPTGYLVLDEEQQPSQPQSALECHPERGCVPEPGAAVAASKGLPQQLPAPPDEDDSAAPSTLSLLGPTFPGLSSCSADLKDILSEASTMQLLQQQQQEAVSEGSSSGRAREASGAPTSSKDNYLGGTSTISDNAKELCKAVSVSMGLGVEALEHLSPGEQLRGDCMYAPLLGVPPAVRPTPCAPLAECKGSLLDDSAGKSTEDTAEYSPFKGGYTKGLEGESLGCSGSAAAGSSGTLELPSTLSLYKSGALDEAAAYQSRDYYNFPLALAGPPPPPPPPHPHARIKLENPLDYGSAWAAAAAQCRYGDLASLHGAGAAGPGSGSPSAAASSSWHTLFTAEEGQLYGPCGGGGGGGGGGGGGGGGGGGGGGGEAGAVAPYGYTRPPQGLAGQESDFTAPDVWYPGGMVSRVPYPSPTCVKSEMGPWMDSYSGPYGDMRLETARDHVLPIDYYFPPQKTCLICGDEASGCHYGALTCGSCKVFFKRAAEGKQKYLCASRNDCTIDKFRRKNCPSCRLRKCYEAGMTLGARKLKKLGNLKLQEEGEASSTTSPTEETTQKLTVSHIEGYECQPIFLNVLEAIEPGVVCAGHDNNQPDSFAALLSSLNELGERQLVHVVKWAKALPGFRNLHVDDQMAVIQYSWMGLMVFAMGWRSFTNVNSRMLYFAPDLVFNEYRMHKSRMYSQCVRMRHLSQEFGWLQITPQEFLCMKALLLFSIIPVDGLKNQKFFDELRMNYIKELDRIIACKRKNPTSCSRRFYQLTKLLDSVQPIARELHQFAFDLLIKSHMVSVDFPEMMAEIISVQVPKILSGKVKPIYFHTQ
Chain of Protein cereblon/Androgen receptor (Q96SW2 whole entry, stated change not applied): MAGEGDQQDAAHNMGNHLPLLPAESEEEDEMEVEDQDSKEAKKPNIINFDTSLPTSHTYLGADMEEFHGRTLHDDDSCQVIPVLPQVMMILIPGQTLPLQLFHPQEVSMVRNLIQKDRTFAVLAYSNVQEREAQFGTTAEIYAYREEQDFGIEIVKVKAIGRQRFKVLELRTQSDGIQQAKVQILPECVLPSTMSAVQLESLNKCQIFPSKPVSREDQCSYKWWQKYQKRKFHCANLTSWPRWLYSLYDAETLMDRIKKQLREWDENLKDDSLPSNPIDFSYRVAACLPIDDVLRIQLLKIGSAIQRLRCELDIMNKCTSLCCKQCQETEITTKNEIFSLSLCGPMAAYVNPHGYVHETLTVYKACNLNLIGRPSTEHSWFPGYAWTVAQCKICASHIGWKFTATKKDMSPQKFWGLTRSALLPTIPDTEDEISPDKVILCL

A short description of data set [2]: Clearance in Sprague-Dawley rat at 2 mg/kg, iv measured upto 24 hrs by LC-MS/MS analysis. The note with it: in vivo.
A short description of data set [3]: Half life in Sprague-Dawley rat at 5 mg/kg, po measured upto 24 hrs by LC-MS/MS analysis. The note with it: in vivo.
The next data set has as its system LNCaP. The data set is described as follows: Growth inhibition in human LNCaP cells assessed as reduction in cell viability.
Data set [4] can be described thus: Metabolic stability in rat liver microsome assessed as parent compound remaining measured at 120 mins in presence of NADPH by LC-MS/MS analysis. The class given is ADME. The note with it: liver microsomes, read-out: Stability. In general terms: Liver microsomes are a subcellular fraction often used to study metabolism.
Data set [5] can be described thus: Metabolic stability in dog liver microsome assessed as parent compound remaining measured at 120 mins in presence of NADPH by LC-MS/MS analysis. In kind it is ADME, Canis lupus familiaris. The note with it: liver microsomes, read-out: Stability.
Data set [6] is described as follows: Metabolic stability in mouse hepatocyte assessed as half life measured upto 120 mins by LC-MS/MS analysis. In kind it is ADME, cell-based. Particulars: hepatocytes.
A short description of data set [7]: Metabolic stability in non human primate hepatocyte assessed as half life measured upto 120 mins by LC-MS/MS analysis. In kind it is ADME, cell-based. The note with it: primates, hepatocytes.
The nature of data set [8]: Metabolic stability in human hepatocyte assessed as half life measured upto 120 mins by LC-MS/MS analysis. In kind it is ADME, cell-based. Particulars: hepatocytes.
The nature of data set [9]: Metabolic stability in dog plasma assessed as half life measured after 2 hrs by LC-MS/MS analysis. In kind it is ADME, cell-free, Canis lupus familiaris.
Data set [10] in a line: Metabolic stability in mouse plasma assessed as parent compound remaining measured after 120 mins by LC-MS/MS analysis. In kind it is ADME, cell-free. The note with it: read-out: Stability.
Data set [11] in a line: Metabolic stability in non human primate plasma assessed as parent compound remaining measured after 120 mins by LC-MS/MS analysis. In kind it is ADME, cell-free. Particulars: primates, read-out: Stability.
Data set [12] in a line: Metabolic stability in human plasma assessed as parent compound remaining measured after 120 mins by LC-MS/MS analysis. Particulars: read-out: Stability. The class given is ADME, cell-free.
Data set [13] can be described thus: Tmax in ICR mouse at 5 mg/kg, po measured upto 24 hrs by LC-MS/MS analysis. In kind it is ADME, organism-based. The note with it: in vivo.
A short description of data set [14]: Cmax in ICR mouse at 5 mg/kg, po measured upto 24 hrs by LC-MS/MS analysis. In kind it is ADME, organism-based. Also noted: time < 24 hrs, dose 5 mg/kg, route po. The note with it: in vivo.
The nature of data set [15]: AUC (0 to t) in ICR mouse at 5 mg/kg, po measured upto 24 hrs by LC-MS/MS analysis. The note with it: in vivo. The class given is ADME, organism-based. Also noted: dose 5 mg/kg, time < 24 hrs, route po.
Data set [16] in a line: Half life in Beagle dog at 1 mg/kg, iv measured upto 24 hrs by LC-MS/MS analysis. The note with it: in vivo. In kind it is ADME, organism-based, Canis lupus familiaris.
Data set [17] is described as follows: Clearance in Beagle dog at 1 mg/kg, iv measured upto 24 hrs by LC-MS/MS analysis. In kind it is ADME, organism-based, Canis lupus familiaris. The note with it: in vivo.
Data set [18] can be described thus: Clearance in non human primate at 1 mg/kg, iv measured upto 24 hrs by LC-MS/MS analysis. In kind it is ADME, organism-based. The note with it: primates, in vivo.
Data set [19] is described as follows: Cmax in non human primate at 2 mg/kg, po measured upto 24 hrs by LC-MS/MS analysis. In kind it is ADME, organism-based. Also noted: dose 2 mg/kg, time < 24 hrs, route po. The note with it: primates, in vivo.
A short description of data set [20]: Toxicity in CB17-SCID mouse assessed as body weight loss at 10 to 40 mg/kg, po administered for 21 days. In kind it is organism-based. Particulars: in vivo, 504 h, dose 10-40 mg/kg, time 21 day.
The nature of data set [21]: in vivo. The note with it: Sprague-Dawley, rat, iv, 2 mg/kg.
A short description of data set [22]: in vivo. The note with it: Sprague-Dawley, rat, po, 5 mg/kg.

The DC50 is the concentration at which degradation of the target reaches its halfway point. In general, clearance refers to the volume of plasma or blood freed of the substance per unit of time. The low end stands for inefficient removal, the high end for efficient removal. By half-life is commonly meant the time in which the quantity being followed falls by half. For orientation: IC50 means the concentration needed to halve the response being measured. In general, Tmax refers to the time at which the peak concentration occurs. As usually defined, the Cmax is the peak of the concentration-time curve. By AUC(0-t) is commonly meant exposure summed from dosing to a finite time, without extrapolation to infinity. High values mean more exposure, low ones less exposure. Regarding `C[C@H]1CC2(CCN(c3ccc(C(=O)N4CCC(CN5Cc6cc7c(cc6C5)C(=O)N(C5CCC(=O)NC5=O)C7=O)CC4)cc3)CC2)CN1c1ccc(C#N)c(Cl)c1` (some centres undefined), in the data set on VCaP, the inhibition in vivo at 20 mg/kg worked out at 68%. Further, the DC50 in [1] is 1.1 nM. In [2], this compound showed a clearance at 24 h of 6 mL/min/kg. The half-life at 24 h in [3] is 5.6 h. Moreover, in the data set with LNCaP, the half-inhibitory concentration (IC50) came out at 2.8 nM. Further, the remaining at 2 h in [4] came out at 87%; in [5], 87%; in data set [10] it was 62%; in [11], 92%; in [12], 69%. Further, the half-life was above 2 h in [6]; above 2 h in data set [7]; above 2 h in data set [8]; above 2 h in data set [9]; 9.9 h in data set [16]. The time to peak (Tmax) in data set [13] was 2 h. Besides, the values for the peak concentration (Cmax) in data set [14] and in data set [19] were 9120 ng/mL and 1520 ng/mL, respectively. Besides, the AUC(0-t) at 24 h was determined as 85200 ng·h/mL in [15] and 5490 ng·h/mL in “in vivo [21]”. The clearance was 3.17 mL/min/kg in [17] and 3.33 mL/min/kg in data set [18]. Besides, the Activity result in [20] is on record as “Non-Toxic”. For the same compound, the Cmax at 24 h in “in vivo [22]” is 871 ng/mL.
